From paper PMC9400670, “Establishing the selective phospholipid membrane coordination, permeation and lysis properties for a series of ‘druggable’ supramolecular self-associating antimicrobial amphiphiles” (Chemical Science, 2022)
Where two headings read alike, the source gives them in different places.

Columns and labels:
[1] = Satellite terminal tissue sampling after i.v. dosing; format: in vivo; settings: n = 3 mice; for concentration at 0.5 h / concentration at 4 h: CD-1, mouse, iv, 1 mg kg^−1; for concentration at 0.5 h: 0.5 h post i.v. dosing
Method: Finally, to gain an understanding of the propensity for SSAs 3 and 5 to diffuse from the mouse circulatory system into the mouse tissues, satellite terminal tissue sampling was also performed.

[2] = system: PC, PG and PE : PG mixed nanodiscs; test: Phospholipid nanodisc 1H NMR CPMG coordination assay, comparison across the three nanodiscs; format: binding; settings: SSA 0.10 mM, in words
Excerpt: Finally, to establish how any single SSA structural variation affects the coordination of an individual salt component to the surface of a phospholipid membrane, the binding of the anionic and cationic components of SSAs 5–12 with nanodiscs comprised of PC, PG or the PE : PG mix (Table 2) was studied. Nanodiscs were synthesised from synthetic vesicles of the relevant phospholipid composition. For full synthetic procedures and nanodisc characterisation please see ESI (Section 13). ^†[34,35]
Styrene-maleic acid (SMA) nanodiscs are small biomimetic scaffolds with a hydrodynamic diameter ≈ 10 nm. […]
Fluorescence polarisation: Lipid films were resuspended in Buffer (150 mM KCl, 10 mM HEPES, pH 7.4, 2 mM EGTA) and subjected to 9 freeze-thaw cycles in liquid nitrogen and extruded 20 times through a 200 nm polycarbonate membrane. […]
Nanodisc preparation: Lipid films were resuspended in Buffer (20 mM NaCl, 20 mM NaH 2PO4, pH 7.4) and sonicated for 1 hour, at a 5:1 ratio, SMA was added and incubated at 37 °C for 1 hour. Dialysed overnight in 5 L of the same buffer in 10 KDa cut-off dialysis tubing, concentrated, and underwent gel filtration size exclusion chromatography on a Superdex 200 10/300 GL column (GE Healthcare) in the same buffer, whilst monitoring absorbance at 260 nm. Nanodisc quantification carried out via monitoring of absorbance at 260 nm using a calibration curve.2 […]

[3] = liver, read-out: Concentration of SSA in liver
[4] = liver, 4.0 h post i.v. dosing, read-out: Concentration of SSA in liver
[5] = lung, read-out: Concentration of SSA in lung
[6] = muscle, read-out: Concentration of SSA in muscle

SMILES | Concentration of SSA in lung ([1]; 4.0 h post i.v. dosing) | Concentration of SSA in muscle ([1]; 4.0 h post i.v. dosing) | concentration at 0.5 h [1, 3] | concentration at 4 h [1, 4] | concentration at 0.5 h [1, 5] | concentration at 0.5 h [1, 6] | concentration at 4 h ([1]; lung, 4.0 h post i.v. dosing, read-out: Concentration of SSA in lung) | interaction of the anionic component of SSA with phospholipid nanodiscs [2]
O=C(NCS(=O)(=O)O)Nc1ccccc1-c1nc2ccccc2s1 [SSA 5] | BLQ | BLQ | 2200 nM | 429 nM | 153 nM | 172 nM |  | 
O=C(NCS(=O)(=O)O)Nc1ccc(C(F)(F)F)cc1 [SSA 3] |  | BLQ | 1230 nM | 206 nM | 86 nM | 86 nM | 18 nM | 
Cc1ccc2nc(-c3ccc(NC(=S)NCS(=O)(=O)O)cc3)sc2c1 [SSA 12] |  |  |  |  |  |  |  | greatest binding affinity for all three nanodiscs of the SSAs tested
Cc1ccc2nc(NC(=O)NCS(=O)(=O)O)sc2c1 [SSA 7] |  |  |  |  |  |  |  | not to interact with any great significance to any of the phospholipid nanodiscs tested
